Results taken from patent publication EP4703358A1, “BENZO SIX-MEMBERED HETEROCYCLIC GSPT1 PROTEIN DEGRADATION AGENT AND USE THEREOF” (China Pharmaceutical University, priority 2023, dated 2024).

Tests used:
Type in all cases: cell-based
[1] = target: T1, GSPT1 protein (Homo sapiens, UniProt P15170+Q96SW2); experiment: Degradation of GSPT1 in KG-1 cells (Western blot); design: percent GSPT1 degradation: dose or concentration left out as unconfirmed
T1 construct: host or cells: KG-1 cells
Description: KG-1 cells (ATCC) were grown in an IMDM culture medium (containing 20% FBS). After centrifugation and counting, the cell concentration was adjusted. The cells were plated onto 6-well plates at 10^6 cells/well, with 1350 µL per well. 150 µL of DMSO and the test compounds of the present disclosure (compound concentration: 200 nM) were added. The plates were incubated in an incubator at 37 °C with 5% CO2 for 4 hours. The cells were centrifuged, and the culture medium was discarded. PBS was added to wash the cells and then discarded. Whole cell lysates were prepared using a protease inhibitor cocktail (100×, Fude Biological), a protein phosphatase inhibitor cocktail (100×, Fude Biological), SuperNuclease (Beyotime), and a high-intensity RIPA lysis buffer (Thermo Fisher) and placed on ice for 30 minutes. After centrifugation, the cell debris precipitates were discarded, and the whole cell lysate supernatants were collected and transferred to new centrifuge tubes. After a BCA protein assay, samples were prepared using a 5× loading buffer (Thermo Fisher). The samples were subjected to protein electrophoresis separation in a 4-20% precast gel (SDS-PAGE gel), transferred to a PVDF membrane, then blocked with 5% NFDM/TBST at room temperature for 1 hour, incubated overnight with primary antibodies at 4 °C, and incubated with a secondary antibody at room temperature for 2 hours the next day. Signals were detected using a MINICHEMITM imaging system.
Primary antibodies: • Anti-GSPT1: Abcam ab234433 • Anti-beta actin: Fude Biological FD0060
Secondary antibody: Anti-rabbit peroxidase-linked secondary antibody: Fude Biological FDG007
The degradation effects of the compounds on GSPT1 protein are shown in Table 1, where A represents a GSPT1 protein degradation percentage of no less than 80%, B represents a degradation percentage of less than 80% but no less than 50%, C represents a degradation percentage of less than 50% but no less than 25%, and D represents a degradation percentage of less than 25%. Table 1. The degradation of GSPT1 protein by compounds

[2] = tested on: KG-1 cells; experiment: Antiproliferative activity against KG-1 cells (CCK8); conditions: 72 hours
Description: KG-1 cells in the logarithmic growth phase were diluted in a culture medium (RPMI + 10% FBS) and plated onto 96-well plates at 5000 cells/well, and the plates were incubated in an incubator at 37 °C with 5% CO2 for 24 hours. 10 mM stock solutions of the test compounds of the present disclosure in DMSO were prepared and diluted with the culture medium to set 9 concentration gradients. Three replicate wells were set for each concentration. After compound addition, the plates were incubated in an incubator at 37 °C with 5% CO2 for 72 hours. The cell proliferation was assessed using the CCK8 method. The cell growth inhibition IC50 values of the compounds were determined using an enzyme labeling method. The IC50 values were calculated using GraphPad Prism 7 software.
The antiproliferative activity of the compounds against KG-1 cells is shown in Table 2, where A represents IC50 < 1 nM, B represents 1 ≤ IC50 < 10 nM, C represents 10 nM ≤ IC50 < 100 nM, D represents 100 nM ≤ IC50 < 1000 nM, and E represents IC50 ≥ 1000 nM. Table 2. The antiproliferative activity of compounds against KG-1 cells

[3] = tested on: MV4-11; experiment: Antiproliferative activity against tumor cells (CCK8), MV4-11; conditions: Homo sapiens, MV4-11 cells, 72 hours
Description: (§1) U937, MOLM-13, and MV4-11 cells (ATCC) in the logarithmic growth phase were separately diluted in a culture medium and plated onto 96-well plates at 5000 cells/well, and the plates were incubated in an incubator at 37 °C with 5% CO2 for 24 hours. 10 mM stock solutions of the compounds in DMSO were prepared and diluted with the culture medium to set 9 concentration gradients. Three replicate wells were set for each concentration. After compound addition, the plates were incubated in an incubator at 37 °C with 5% CO2 for 72 hours. The cell proliferation was assessed using the CCK8 method. The cell growth inhibition IC50 values of the compounds were determined using an enzyme labeling method. The IC50 values were calculated using GraphPad Prism 7 software.
(§2) The antiproliferative activity of the compounds against the tumor cells is shown in Table 3, where A represents IC50 < 1 nM, B represents 1 ≤ IC50 < 10 nM, C represents 10 nM ≤ IC50 < 100 nM, D represents 100 nM ≤ IC50 < 1000 nM, and E represents IC50 ≥ 1000 nM. Table 3. The antiproliferative activity of compounds against tumor cells

[4] = tested on: MOLM-13; experiment: Antiproliferative activity against tumor cells (CCK8), MOLM-13; conditions: Homo sapiens, MOLM-13 cells, 72 hours
Description: as §1, §2

[5] = tested on: U937; experiment: Antiproliferative activity against tumor cells (CCK8), U937; conditions: Homo sapiens, U-937, 72 hours
Description: as §1, §2

[6] = KG-1 cells, compound concentration 200 nM, 4 hours

T1 sequence (P15170 whole entry): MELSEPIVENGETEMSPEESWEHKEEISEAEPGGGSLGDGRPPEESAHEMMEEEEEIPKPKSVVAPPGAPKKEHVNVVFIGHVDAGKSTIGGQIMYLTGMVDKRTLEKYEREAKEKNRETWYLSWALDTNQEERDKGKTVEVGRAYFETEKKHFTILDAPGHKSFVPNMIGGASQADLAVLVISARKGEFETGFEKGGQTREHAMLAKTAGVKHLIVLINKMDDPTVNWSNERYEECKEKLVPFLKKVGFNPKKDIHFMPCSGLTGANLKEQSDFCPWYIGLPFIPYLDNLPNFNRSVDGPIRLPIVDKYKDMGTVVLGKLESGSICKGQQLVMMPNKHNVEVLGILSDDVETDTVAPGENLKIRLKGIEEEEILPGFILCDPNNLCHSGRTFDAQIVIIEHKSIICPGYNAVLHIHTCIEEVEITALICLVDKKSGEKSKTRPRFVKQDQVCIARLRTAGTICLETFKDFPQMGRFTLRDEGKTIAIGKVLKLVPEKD
T1 sequence (Q96SW2 whole entry): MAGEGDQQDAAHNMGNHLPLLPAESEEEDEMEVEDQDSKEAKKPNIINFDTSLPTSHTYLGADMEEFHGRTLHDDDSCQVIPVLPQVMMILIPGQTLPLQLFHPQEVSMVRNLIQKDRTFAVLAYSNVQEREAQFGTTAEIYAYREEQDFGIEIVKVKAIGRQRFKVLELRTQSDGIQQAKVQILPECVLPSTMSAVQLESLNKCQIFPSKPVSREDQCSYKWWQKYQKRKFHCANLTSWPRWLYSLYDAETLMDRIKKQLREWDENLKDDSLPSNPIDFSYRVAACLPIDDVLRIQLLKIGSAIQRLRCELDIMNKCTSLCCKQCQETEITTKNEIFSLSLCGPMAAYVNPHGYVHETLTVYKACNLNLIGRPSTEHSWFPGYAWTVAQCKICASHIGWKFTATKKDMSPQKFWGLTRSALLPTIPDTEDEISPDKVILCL
T1 sequence (Q16531 whole entry partner): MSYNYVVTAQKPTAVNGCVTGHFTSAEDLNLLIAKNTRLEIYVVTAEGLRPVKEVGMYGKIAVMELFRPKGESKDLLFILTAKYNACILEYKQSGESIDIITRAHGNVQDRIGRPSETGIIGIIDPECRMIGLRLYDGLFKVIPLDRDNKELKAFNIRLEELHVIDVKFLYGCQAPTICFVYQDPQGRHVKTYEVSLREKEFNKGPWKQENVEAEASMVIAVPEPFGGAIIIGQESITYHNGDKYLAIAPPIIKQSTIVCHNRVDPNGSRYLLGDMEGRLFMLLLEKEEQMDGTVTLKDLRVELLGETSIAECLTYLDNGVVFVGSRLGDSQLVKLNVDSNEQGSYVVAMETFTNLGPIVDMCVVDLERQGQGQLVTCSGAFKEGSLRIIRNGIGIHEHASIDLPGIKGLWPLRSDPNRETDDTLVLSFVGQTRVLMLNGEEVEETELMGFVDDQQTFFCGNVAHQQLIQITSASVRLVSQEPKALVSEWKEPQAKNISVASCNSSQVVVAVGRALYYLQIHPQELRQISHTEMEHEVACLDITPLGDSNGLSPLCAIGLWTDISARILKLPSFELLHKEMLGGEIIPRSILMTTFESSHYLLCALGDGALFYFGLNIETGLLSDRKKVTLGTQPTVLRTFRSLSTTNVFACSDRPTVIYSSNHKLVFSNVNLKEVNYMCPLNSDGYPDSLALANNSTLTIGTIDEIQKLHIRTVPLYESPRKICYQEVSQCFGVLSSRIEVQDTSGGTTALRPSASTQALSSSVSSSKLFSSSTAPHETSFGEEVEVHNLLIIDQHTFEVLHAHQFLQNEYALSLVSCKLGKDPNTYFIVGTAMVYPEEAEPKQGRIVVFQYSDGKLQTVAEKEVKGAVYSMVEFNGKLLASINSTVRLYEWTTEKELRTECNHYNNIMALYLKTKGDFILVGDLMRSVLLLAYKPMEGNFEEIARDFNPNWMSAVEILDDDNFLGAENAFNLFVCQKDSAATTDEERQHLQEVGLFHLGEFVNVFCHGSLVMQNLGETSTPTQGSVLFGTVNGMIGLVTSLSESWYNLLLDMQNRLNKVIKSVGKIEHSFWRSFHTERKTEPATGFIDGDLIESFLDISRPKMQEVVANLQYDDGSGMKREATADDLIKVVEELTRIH

Row | SMILES | percent GSPT1 degradation at 0.2 µM [1, 6] [%] | IC50 ([2]; Homo sapiens) [nM] | also measured
1 | Cc1cc2c(cc1Cl)C=C(C(=O)NCc1ccc3c(c1)CN(C1CCC(=O)NC1=O)C3=O)CO2 (stereo not shown) [Compound A-28] | – | – | GSPT1 degradation [1, 6]: A (a GSPT1 protein degradation percentage of no less than 80%); IC50 [2]: 10 to 100 nM
2 | Cc1cc2c(cc1Cl)OCC(C(=O)NCc1ccc3c(c1)CN(C1CCC(=O)NC1=O)C3=O)=C2 (stereo not shown) [Compound A-29, N-((2-(2,6-Dioxopiperidin-3-yl)-1-oxoisoindolin-5-yl)methyl)-7-chloro-6-methyl-2H-chromene-3-carboxamide] | > 80 | 10 to 100 | –
3 | Cc1cc2c(cc1F)OCC(C(=O)NCc1ccc3c(c1)CN(C1CCC(=O)NC1=O)C3=O)=C2 (stereo not shown) [Compound A-30, N-((2-(2,6-Dioxopiperidin-3-yl)-1-oxoisoindolin-5-yl)methyl)-7-fluoro-6-methyl-2H-chromene-3-carboxamide] | > 80 | 10 to 100 | –
4 | Cc1cc(F)cc2c1OCC(C(=O)NCc1ccc3c(c1)CN(C1CCC(=O)NC1=O)C3=O)=C2 (stereo not shown) [Compound A-31, N-((2-(2,6-Dioxopiperidin-3-yl)-1-oxoisoindolin-5-yl)methyl)-6-fluoro-8-methyl-2H-chromene-3-carboxamide] | > 80 | 1 to 10 | –
5 | O=C1CCC(N2Cc3cc(CNC(=O)C4=Cc5ccc(F)c(F)c5OC4)ccc3C2=O)C(=O)N1 (stereo not shown) [Compound A-32, N-((2-(2,6-Dioxopiperidin-3-yl)-1-oxoisoindolin-5-yl)methyl)-7,8-difluoro-2H-chromene-3-carboxamide] | > 80 | 1 to 10 | –
6 | O=C1CCC(N2Cc3cc(CNC(=O)C4=Cc5cc(F)cc(F)c5OC4)ccc3C2=O)C(=O)N1 (stereo not shown) [Compound A-33, N-((2-(2,6-Dioxopiperidin-3-yl)-1-oxoisoindolin-5-yl)methyl)-6,8-difluoro-2H-chromene-3-carboxamide] | > 80 | 1 to 10 | –
7 | O=C1CCC(N2Cc3cc(CNC(=O)C4=Cc5c(F)cc(F)cc5OC4)ccc3C2=O)C(=O)N1 (stereo not shown) [Compound A-34, N-((2-(2,6-Dioxopiperidin-3-yl)-1-oxoisoindolin-5-yl)methyl)-5,7-difluoro-2H-chromene-3-carboxamide] | > 80 | 1 to 10 | –
8 | O=C1CCC(N2Cc3cc(CNC(=O)C4=Cc5cc(F)c(F)cc5OC4)ccc3C2=O)C(=O)N1 (stereo not shown) [Compound A-35, N-((2-(2,6-Dioxopiperidin-3-yl)-1-oxoisoindolin-5-yl)methyl)-6,7-difluoro-2H-chromene-3-carboxamide] | – | 10 to 100 | percent GSPT1 degradation ([1]; KG-1, 4 h, read-out: GSPT1 degradation): > 80%
9 | O=C1CCC(N2Cc3cc(CNC(=O)C4=Cc5c(F)ccc(F)c5OC4)ccc3C2=O)C(=O)N1 (stereo not shown) [Compound A-36, N-((2-(2,6-Dioxopiperidin-3-yl)-1-oxoisoindolin-5-yl)methyl)-5,8-difluoro-2H-chromene-3-carboxamide] | > 80 | 1 to 10 | –
10 | Cc1cc2c(cc1C)OCC(C(=O)NCc1ccc3c(c1)CN(C1CCC(=O)NC1=O)C3=O)=C2 (stereo not shown) [Compound A-37, N-((2-(2,6-Dioxopiperidin-3-yl)-1-oxoisoindolin-5-yl)methyl)-6,7-dimethyl-2H-chromene-3-carboxamide] | > 80 | 10 to 100 | –
11 | Cc1ccc(C)c2c1C=C(C(=O)NCc1ccc3c(c1)CN(C1CCC(=O)NC1=O)C3=O)CO2 (stereo not shown) [Compound A-38, N-((2-(2,6-Dioxopiperidin-3-yl)-1-oxoisoindolin-5-yl)methyl)-5,8-dimethyl-2H-chromene-3-carboxamide] | > 80 | 10 to 100 | –
12 | O=C1CCC(N2Cc3cccc(CNC(=O)C4=Cc5cc(OC(F)(F)F)ccc5OC4)c3C2=O)C(=O)N1 (stereo not shown) [Compound A-39, N-((2-(2,6-Dioxopiperidin-3-yl)-3-oxoisoindolin-4-yl)methyl)-6-(trifluoromethoxy)-2H-chromene-3-carboxamide] | 50 to 80 | 10 to 100 | –
13 | O=C1CCC(N2Cc3ccc(CNC(=O)C4=Cc5cc(OC(F)(F)F)ccc5OC4)cc3C2=O)C(=O)N1 (stereo not shown) [Compound A-40, N-((2-(2,6-Dioxopiperidin-3-yl)-3-oxoisoindolin-5-yl)methyl)-6-(trifluoromethoxy)-2H-chromene-3-carboxamide] | 50 to 80 | 10 to 100 | –
14 | O=C1CCC(N2Cc3c(CNC(=O)C4=Cc5cc(OC(F)(F)F)ccc5OC4)cccc3C2=O)C(=O)N1 (stereo not shown) [Compound A-41, N-((2-(2,6-Dioxopiperidin-3-yl)-1-oxoisoindolin-4-yl)methyl)-6-(trifluoromethoxy)-2H-chromene-3-carboxamide] | 50 to 80 | 10 to 100 | –
15 | O=C1CCC(N2Cc3c(ccc(CNC(=O)C4=Cc5cccc(OC(F)(F)F)c5OC4)c3F)C2=O)C(=O)N1 (stereo not shown) [Compound A-43, N-((2-(2,6-Dioxopiperidin-3-yl)-4-fluoro-1-oxoisoindolin-5-yl)methyl)-8-(trifluoromethoxy)-2H-chromene-3-carboxamide] | > 80 | 1 to 10 | –

The next lines start with results.

Row | percent GSPT1 degradation at 0.2 µM [1, 6] [%] | SMILES | IC50 ([2]; Homo sapiens) [nM] | also measured
16 | > 80 | O=C1CCC(N2Cc3cc(CNC(=O)C4COc5ccc(F)cc5C4)ccc3C2=O)C(=O)N1 (stereo not shown) [Compound B-2, N-((2-(2,6-Dioxopiperidin-3-yl)-1-oxoisoindolin-5-yl)methyl)-6-fluorochromane-3-carboxamide] | 1 to 10 | –
17 | > 80 | O=C1CCC(N2Cc3cc(CNC(=O)C4COc5ccc(Cl)cc5C4)ccc3C2=O)C(=O)N1 (stereo not shown) [Compound B-3, N-((2-(2,6-Dioxopiperidin-3-yl)-1-oxoisoindolin-5-yl)methyl)-6-chlorochromane-3-carboxamide] | 1 to 10 | –
18 | > 80 | O=C1CCC(N2Cc3cc(CNC(=O)C4COc5ccc(OC(F)(F)F)cc5C4)ccc3C2=O)C(=O)N1 (stereo not shown) [Compound B-4, N-((2-(2,6-Dioxopiperidin-3-yl)-1-oxoisoindolin-5-yl)methyl)-6-(trifluoromethoxy)chromane-3-carboxamide] | < 1 | IC50 [3]: < 1 nM; IC50 [4]: 1 to 10 nM; IC50 [5]: 1 to 10 nM
19 | > 80 | O=C1CCC(N2Cc3cc(CNC(=O)C4CNc5ccccc5C4)ccc3C2=O)C(=O)N1 (stereo not shown) [Compound C-1, N-((2-(2,6-Dioxopiperidin-3-yl)-1-oxoisoindolin-5-yl)methyl)-1,2,3,4-tetrahydroquinoline-3-carboxamide] | 1 to 10 | IC50 [3]: 10 to 100 nM; IC50 [4]: 10 to 100 nM; IC50 [5]: 10 to 100 nM
20 | < 25 | O=C1CCC(N2Cc3cc(CNC(=O)C4CCc5ccccc5C4)ccc3C2=O)C(=O)N1 [Compound D-1, N-((2-(2,6-Dioxopiperidin-3-yl)-1-oxoisoindolin-5-yl)methyl)-1,2,3,4-tetrahydronaphthalene-2-carboxamide] | ≥ 1000 | IC50 [3]: ≥ 1000 nM; IC50 [4]: ≥ 1000 nM; IC50 [5]: ≥ 1000 nM
